Where only a bound is given, the exact number is not on record here.

The target of this experiment is T1, human TRPM8 (Homo sapiens, UniProt Q7Z2W7).
T1 construct: expressed in transfected cells; host or cells: HEK293
T1 sequence (Q7Z2W7 whole entry): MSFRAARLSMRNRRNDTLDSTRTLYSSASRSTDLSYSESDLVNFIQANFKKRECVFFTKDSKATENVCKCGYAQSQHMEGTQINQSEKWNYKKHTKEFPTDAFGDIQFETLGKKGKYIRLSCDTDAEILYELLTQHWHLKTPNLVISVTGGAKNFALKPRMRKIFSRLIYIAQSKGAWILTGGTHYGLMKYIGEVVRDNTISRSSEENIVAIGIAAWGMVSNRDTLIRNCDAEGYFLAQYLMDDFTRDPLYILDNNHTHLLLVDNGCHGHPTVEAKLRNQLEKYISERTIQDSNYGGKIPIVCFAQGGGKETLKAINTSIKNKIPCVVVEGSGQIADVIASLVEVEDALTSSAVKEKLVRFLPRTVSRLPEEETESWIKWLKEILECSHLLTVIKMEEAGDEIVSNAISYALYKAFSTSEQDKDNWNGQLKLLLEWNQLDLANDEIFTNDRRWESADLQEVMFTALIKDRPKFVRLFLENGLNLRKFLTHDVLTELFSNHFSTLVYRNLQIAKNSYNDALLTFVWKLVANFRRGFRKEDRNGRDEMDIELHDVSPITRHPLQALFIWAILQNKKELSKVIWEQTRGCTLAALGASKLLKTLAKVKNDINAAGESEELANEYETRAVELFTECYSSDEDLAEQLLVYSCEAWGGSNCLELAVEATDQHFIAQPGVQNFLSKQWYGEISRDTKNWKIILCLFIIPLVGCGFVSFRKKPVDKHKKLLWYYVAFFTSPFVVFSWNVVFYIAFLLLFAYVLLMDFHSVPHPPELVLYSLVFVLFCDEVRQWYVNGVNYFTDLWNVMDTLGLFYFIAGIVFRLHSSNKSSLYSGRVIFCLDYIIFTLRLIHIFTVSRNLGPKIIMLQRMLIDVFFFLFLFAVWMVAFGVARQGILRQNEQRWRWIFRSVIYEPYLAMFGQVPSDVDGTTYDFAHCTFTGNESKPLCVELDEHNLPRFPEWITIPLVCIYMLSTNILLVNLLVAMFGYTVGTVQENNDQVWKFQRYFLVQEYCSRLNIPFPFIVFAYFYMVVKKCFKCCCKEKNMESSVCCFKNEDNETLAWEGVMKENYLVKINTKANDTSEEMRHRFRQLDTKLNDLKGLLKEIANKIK
As to the kind of experiment: Menthol-induced Ca2+ influx in HEK293 cells stably expressing human TRPM8. As to conditions: 30 microM menthol-induced Ca2+ influx, read-out: IC50 against TRPM8. Type of experiment: cell-based. In outline:
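IC50 values were fitted from 11-point dose-response data averaged over duplicate wells. Compound was added for 5 min to Fluo4-loaded HEK293 cells carrying stable human TRPM8, in HBSS/HEPES pH 7.4 with probenecid. Intracellular Ca2+ change after 30 microM menthol addition was then imaged on FDSS.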
For `Cc1cccc(-n2c(C)nc(C(=O)CN3C(=O)CC4(CCC(F)(F)CC4)C3=O)c2C)c1` [Example 2-8], the IC50 was less than 500 nM. Turning to `Cc1ccncc1-c1sc(C(=O)CN2C(=O)NC3(CCC(F)(F)CC3)C2=O)cc1C` [Example 14-5], the IC50 is less than 10 nM.

In the case of `O=C(CN1C(=O)NC2(CCCCC2)C1=O)c1ccc(-c2cnccc2CO)cc1` [Example 7-9], the IC50 was less than 100 nM. The result for `N#Cc1cccc(Oc2ccc(C(=O)CN3C(=O)NC4(CCC(F)(F)CC4)C3=O)cn2)c1` [Example 20-7] reads less than 100 nM; that for `Cc1nc(C(=O)CN2C(=O)NC3(CCCCC3)C2=O)c(C)n1-c1ccccc1` [Example 2-1], less than 100 nM; that for `O=C(CN1C(=O)NC2(CCC(F)(F)CC2)C1=O)c1ccc(-c2cnccn2)cc1` [Example 6-100], less than 500 nM. The result for `Cc1ccc2nc(C)n(-c3ccc(C(=O)CN4CC5(CCC(F)(F)CC5)OC4=O)cc3)c2n1` [Example 22-6] reads less than 500 nM. With `N#Cc1nccnc1-c1ccc(C(=O)CN2C(=O)NC3(CCC(F)(F)CC3)C2=O)cc1F` [Example 8-1], the IC50 was less than 100 nM.

As for `O=C(CN1C(=O)NC2(CCC(F)(F)CC2)C1=O)c1ccc(-c2n[nH]c3ccccc23)cc1` [Example 6-32], the IC50 was less than 100 nM.

For `Cc1cc(C(=O)CN2C(=O)NC3(CCC(F)(F)CC3)C2=O)c(C)n1-c1ccc2ccccc2n1` [Example 3-20], the IC50 is less than 500 nM. Consider `O=C(CN1C(=O)NC2(CCC(F)(F)CC2)C1=O)c1ccc(-c2cncc3[nH]ncc23)cc1` [Example 6-4], for which the half-maximal inhibitory concentration (IC50) is less than 10 nM. For `Cc1cccc(-c2c(C)cc(C(=O)CN3C(=O)NC4(CCC(F)(F)CC4)C3=O)n2C)c1` [Example 16-18], the IC50 is less than 100 nM. The result for `O=C(CN1C(=O)NC2(CCC(F)(F)CC2)C1=O)c1ccc(N2C(=O)COc3ccccc32)cc1` [Example 19-21] reads less than 100 nM; that for `Cc1ccncc1-c1c(C)sc(C(=O)CN2C(=O)NC3(CCC(F)(F)CC3)C2=O)c1C` [Example 15-4], less than 100 nM.

Take `Cc1cc(C(=O)CN2C(=O)NC3(CCCCC3)C2=O)ccc1-c1ccccc1` [Example 13-5]: the IC50 was less than 100 nM.

For `O=C(CN1C(=O)NC2(CCC(F)(F)CC2)C1=O)c1cnc(-n2cnc3ccccc32)cn1` [Example 19-24], the IC50 was less than 100 nM. In the case of `Cc1cc(C(=O)CN2C(=O)NC3(CCC(F)(F)CC3)C2=O)n(C)c1-c1cncc(F)c1` [Example 16-21] it was less than 100 nM. Turning to `Cc1cc2ccccc2n1-c1ccc(C(=O)CN2C(=O)NC3(CCC(F)(F)CC3)C2=O)cc1` [Example 19-19], the IC50 was less than 500 nM. Regarding `Cc1nc(C(=O)CN2C(=O)NC3(CCC(F)(F)CC3)C2=O)c(C)n1-c1cccc(F)c1` [Example 2-11], the IC50 is less than 100 nM. For the compound `CN(c1cccnc1)c1ccc(C(=O)CN2C(=O)NC3(CCCCC3)C2=O)cn1` [Example 19-4], the IC50 was less than 100 nM.

In the case of `Cc1c(C(=O)CN2C(=O)NC3(CCC(F)(F)CC3)C2=O)cn(C)c1-c1cncc(F)c1` [Example 16-23], the IC50 was less than 100 nM.

In the case of `Cc1nc2ccc(C(F)(F)F)nc2n1-c1ccc(C(=O)CN2C(=O)NC3(CCC(F)(F)CC3)C2=O)cc1` [Example 5-31], the IC50 was less than 100 nM.

As to `O=C1Cc2c(-c3ccc(C(=O)CN4C(=O)NC5(CCC(F)(F)CC5)C4=O)cc3)ccnc2N1` [Example 6-42], the IC50 is less than 500 nM. The result for `O=C(CN1C(=O)NC2(CCC(F)(F)CC2)C1=O)c1ccc(-c2ncccc2CO)cc1` [Example 6-36] reads less than 100 nM; that for `O=C(CN1C(=O)NC2(CCC(F)(F)CC2)C1=O)c1ccc(-c2ncc3ccccn23)cc1` [Example 6-63], less than 100 nM; that for `N#Cc1cccc(-c2ccc(C(=O)CN3C(=O)NC4(CCCCC4)C3=O)c(F)c2)c1` [Example 13-19], less than 100 nM. In the case of `Cc1cncc(-n2c(C)cc(C(=O)CN3C(=O)NC4(CC5CCC4C5)C3=O)c2C)c1` (stereo not shown) [Example 3-10] it was less than 100 nM.

For `Cc1nc(C(=O)CN2C(=O)NC3(CCC(F)(F)CC3)C2=O)c(C)n1-c1cccc(Cl)c1` [Example 2-14], the IC50 is less than 100 nM. For `O=C(CN1C(=O)NC2(CCC(F)(F)CC2)C1=O)c1ccc(-c2nccc3ccccc23)cc1` [Example 6-25], the IC50 is less than 100 nM. The result for `N#Cc1ncccc1-c1ccc(C(=O)CN2C(=O)NC3(CCC(F)(F)CC3)C2=O)cc1F` [Example 8-4] reads less than 100 nM; that for `O=C1Cc2c(cccc2-c2ccc(C(=O)CN3C(=O)NC4(CCC(F)(F)CC4)C3=O)cc2)N1` [Example 13-44], less than 100 nM. The result for `Cc1cc(C(=O)CN2C(=O)NC3(CCC(F)(F)CC3)C2=O)n(C)c1-c1cccnc1` [Example 16-11] reads less than 100 nM; that for `Cc1nc2c(-c3ccc(C(=O)CN4C(=O)NC5(CCC(F)(F)CC5)C4=O)cc3)cccc2[nH]1` [Example 6-65], less than 500 nM; that for `Cc1ccc2nc(CN3CCCCC3)n(-c3ccc(C(=O)CN4C(=O)NC5(CCC(F)(F)CC5)C4=O)cc3)c2n1` [Example 25-3], less than 500 nM. The result for `Cc1ncccc1-c1sc(C(=O)CN2C(=O)NC3(CCC(F)(F)CC3)C2=O)nc1C` [Example 18-8] reads less than 500 nM. As to `Cc1cccc(-n2c(C)nc(C(=O)CN3C(=O)NC4(CCCCC4)C3=O)c2C)c1` [Example 2-13], the concentration for half-maximal inhibition (IC50) is less than 100 nM. In the case of `Cc1cc(C(=O)CN2C(=O)NC3(CCC(F)(F)CC3)C2=O)ccc1-c1ccccc1` [Example 13-14] it was less than 100 nM; in that of `O=C(CN1C(=O)NC2(CCC(F)(F)CC2)C1=O)c1ccc(-c2ccnc3[nH]ncc23)nc1` [Example 9-26], less than 500 nM; in that of `O=C(CN1C(=O)NC2(CCCCC2)C1=O)c1ccc(-c2ccccc2C(F)(F)F)nc1` [Example 9-6], less than 100 nM.

For the compound `Cc1cc(C(=O)CN2C(=O)NC3(CCC(F)(F)CC3)C2=O)sc1-c1ccccc1Cl` [Example 14-14], the IC50 was less than 100 nM. In the case of `Cc1nc2ccccc2n1-c1ccc(C(=O)CN2C(=O)NC3(CCCCCC3)C2=O)cc1` [Example 5-13] it was less than 100 nM. As for `O=C(CN1C(=O)NC2(CCC(F)(F)CC2)C1=O)c1ccc(-c2cccnc2NCCO)cc1` [Example 6-46], the IC50 was less than 500 nM. On to `O=C(CN1C(=O)NC2(CCC(F)(F)CC2)C1=O)c1ccc(N2CCOc3ccccc32)cc1` [Example 19-20], for which the IC50 was less than 100 nM. Take `O=C(CN1C(=O)NC2(CCC(F)(F)CC2)C1=O)c1ccc(-n2c(C(F)F)nc3cccnc32)cc1` [Example 24-1]: the IC50 was less than 100 nM. On to `Cc1nc(C(=O)CN2C(=O)NC3(CCC(F)(F)CC3)C2=O)sc1-c1cncc(C#N)c1` [Example 18-13], for which the IC50 is less than 500 nM.

As to `O=C(CN1CC2(CCC(F)(F)CC2)OC1=O)c1ccc(-c2cccnc2CO)cc1` [Example 7-18], the IC50 was less than 500 nM. In the case of `Cc1ncccc1-c1ccc(C(=O)CN2C(=O)NC3(CCCCC3)C2=O)cn1` [Example 9-7] it was less than 100 nM. Turning to `O=C(CN1C(=O)NC2(CCC(F)(F)CC2)C1=O)c1ccc(-c2ccc3ccncc3c2)cc1` [Example 6-96], the IC50 was less than 500 nM. The result for `Cc1c(C(=O)CN2C(=O)NC3(CCC(F)(F)CC3)C2=O)cn(C)c1-c1cccc2ccncc12` [Example 16-27] reads less than 100 nM. The result for `O=C(CN1C(=O)NC2(CCC(F)(F)CC2)C1=O)c1ccc(-n2c(=O)[nH]c3cccnc32)cc1` [Example 23-1, 8,8-difluoro-3-(2-oxo-2-(4-(2-oxo-1H-imidazo[4,5-b]pyridin-3(2H)-yl)phenyl)ethyl)-1,3-diazaspiro[4.5]decane-2,4-dione] reads less than 100 nM.

Take `O=C(CN1C(=O)NC2(CCC(F)(F)CC2)C1=O)c1ccc(N2C(=O)COc3ccccc32)nc1` [Example 19-13]: the IC50 was less than 100 nM. `Cc1cc(C(=O)CN2C(=O)NC3(CCCCC3)C2=O)cnc1-c1ccccc1C#N` [Example 11-1]: the IC50 was less than 100 nM. In the case of `O=C(CN1C(=O)NC2(CCC(F)(F)CC2)C1=O)c1ccc(-n2ccc3ccncc32)nc1` [Example 19-8] it was less than 100 nM. In the case of `O=C(CN1C(=O)NC2(CCC(F)(F)CC2)C1=O)c1ccc(Oc2cccnc2)c(F)c1` [Example 21-17] it was less than 100 nM; in that of `N#Cc1ccccc1-c1ccc(C(=O)CN2C(=O)NC3(CCCCC3)C2=O)cn1` [Example 9-8], less than 100 nM. The result for `Cc1c(C(=O)CN2C(=O)NC3(CCCCC3)C2=O)nn(C)c1-c1cccnc1` [Example 4-8] reads less than 500 nM. As for `Cc1cc(C)nc(-n2c(C)cc(C(=O)CN3C(=O)NC4(CCC(F)(F)CC4)C3=O)c2C)c1` [Example 3-16], the IC50 was less than 100 nM.

As for `Cc1ncccc1-c1ccc(C(=O)CN2C(=O)NC3(CCC(F)(F)CC3)C2=O)cn1` [Example 9-15], the IC50 is less than 100 nM. The result for `Cc1cc(C(=O)CN2C(=O)NC3(CCC(F)(F)CC3)C2=O)c(C)n1-c1ccccc1` [Example 3-4] reads less than 100 nM; that for `COc1ccccc1-c1sc(C(=O)CN2C(=O)NC3(CCC(F)(F)CC3)C2=O)cc1C` [Example 14-12], less than 100 nM. Consider `Cc1cccc(-n2c(C)cc(C(=O)CN3C(=O)NC4(CCC(F)(F)CC4)C3=O)c2C)c1` [Example 3-5], for which the IC50 is less than 100 nM. In the case of `Nc1nccnc1-c1ccc(C(=O)CN2C(=O)NC3(CCC(F)(F)CC3)C2=O)cc1` [Example 6-117] it was less than 500 nM. In the case of `O=C(CN1C(=O)NC2(CCC(F)(F)CC2)C1=O)c1ccc(Oc2ccccn2)nc1` [Example 20-6] it was less than 100 nM; in that of `Cc1ccc2nc(C(F)F)n(-c3ccc(C(=O)CN4C(=O)NC5(CCC(F)(F)CC5)C4=O)cc3)c2n1` [Example 24-5], less than 10 nM; in that of `O=C(CN1C(=O)NC2(CCCCC2)C1=O)c1ccc(-c2ccccc2CO)cc1` [Example 13-1], less than 100 nM. The result for `O=C(CN1C(=O)NC2(CCCCC2)C1=O)c1ccc(-c2cccnc2CO)cc1` [Example 7-11] reads less than 100 nM; that for `O=C(CN1C(=O)NC2(CCC(F)(F)CC2)C1=O)c1ccc(-c2ncnc3[nH]ncc23)cc1` [Example 6-23], less than 100 nM.

What is called IC50 is the point on the concentration scale where inhibition reaches its midpoint.
